Source: patent US12570675B2, “Boronic acid compounds” (LG CHEM, LTD., priority 2020, dated 2026)
pIC50: −log10 of the molar value.

Target: Proteasome chymotrypsin-like activity (S26 protein from RPMI8226 cells) (Homo sapiens, UniProt P28074)
Assay type: biochemical
Settings: S26 protein from RPMI8226 cell extract 2 ug/well, substrate 20 uM, 37° C., 90 minutes; read-out: Proteasome chymotrypsin-like activity inhibition IC50
Method: The abilities to inhibit the proteasome activity of the compounds described in the Examples of the present invention and boronic acid drugs were evaluated as follows.
RPMI8226 cells, which is a multiple myeloma cell line, were cultured and then separated by a centrifuge, and washed twice with phosphate buffered saline (PBS). 20 mM of a tris-HCl (pH 8.0) buffer solution was added to the washed cells, and the cells were disrupted by a homogenizer and centrifuged to obtain S26 protein from the supernatant. Suc-Leu-Leu-Val-Tyr-AMC, for a fluorogenic substrate for the chymotrypsin-like activity of the proteasome, and Z-Leu-Leu-Glu-AMC, for a fluorogenic substrate for the caspase-like activity, were purchased from Calbiochem, EMD Millipore and used. Into each well of a 96-well plate (opaque, black round bottom), 20 ul of the S26 protein (final RPMI8226 cell extract concentration: 2 ug/well), 10 ul of S26 proteasome inhibitor serially diluted from 10 uM (final DMSO concentration: 0.5%), and 20 ul of the fluorogenic substrate for the proteasome chymotrypsin-like or caspase-like activity (final concentration: 20 uM) were added and mixed and allowed to react in a 37° C. incubator for 90 minutes. The fluorescence of the fluorogenic substrate was measured by FlexStation II Fluorometer (Molecular Devices). The fluorescence inhibited by the compound diluted at each concentration was measured as the relative percentage value for the amount obtained from the treatment only with the S26 protein and the fluorogenic substrate. IC50 (inhibitory concentration 50) was expressed in terms of a concentration that inhibits 50% of the maximum fluorescence induced by the fluorogenic substrate.

Sequence of Proteasome chymotrypsin-like activity (S26 protein from RPMI8226 cells) (P28074 60-263 limits assumed): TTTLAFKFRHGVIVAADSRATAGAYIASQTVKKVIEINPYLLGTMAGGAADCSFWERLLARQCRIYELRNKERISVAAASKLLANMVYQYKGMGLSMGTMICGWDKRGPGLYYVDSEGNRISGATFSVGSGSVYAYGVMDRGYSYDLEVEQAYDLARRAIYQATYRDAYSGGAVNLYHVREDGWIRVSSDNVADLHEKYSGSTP

| Structure (SMILES) | pIC50 |
| --- | --- |
| CC(C)C[C@H](NC(=O)C1CC(c2cccc(OC(F)(F)F)c2)=NO1)B(O)O (stereo partly drawn) [Example 37, ((1R)-3-methyl-1-(3-(3-(trifluoromethoxy)phenyl)-4,5-dihydroisoxazol-5-carboxamido)butyl)boronic acid] | > 6.30 |
| CC(C)C[C@H](NC(=O)C1CC(c2ccc(OC(F)(F)F)cc2)=NO1)B(O)O (stereo partly drawn) [Example 38, ((1R)-3-methyl-1-(3-(4-(trifluoromethoxy)phenyl)-4,5-dihydroisoxazol-5-carboxamido)butyl)boronic acid] | > 6.30 |
| CC(C)C[C@H](NC(=O)C1CC(c2ccccc2OC(F)(F)F)=NO1)B(O)O (stereo partly drawn) [Example 39, ((1R)-3-methyl-1-(3-(2-(trifluoromethoxy)phenyl)-4,5-dihydroisoxazol-5-carboxamido)butyl)boronic acid] | > 6.30 |
| CC(C)C[C@H](NC(=O)C1CC(c2cccc(Oc3ccccc3)c2)=NO1)B(O)O (stereo partly drawn) [Example 40, ((1R)-3-methyl-1-(3-(3-phenoxyphenyl)-4,5-dihydroisoxazol-5-carboxamido)butyl)boronic acid] | > 6.30 |
| CC(C)C[C@H](NC(=O)C1CC(c2cccc(Oc3ccccn3)c2)=NO1)B(O)O (stereo partly drawn) [Example 41, ((1R)-3-methyl-1-(3-(3-(pyridin-2-yloxy)phenyl)-4,5-dihydroisoxazol-5-carboxamido)butyl)boronic acid] | > 6.60 |
| CC(C)C[C@H](NC(=O)C1CC(c2ccc(Oc3ccccn3)cc2)=NO1)B(O)O (stereo partly drawn) [Example 42, ((1R)-3-methyl-1-(3-(4-(pyridin-2-yloxy)phenyl)-4,5-dihydroisoxazol-5-carboxamido)butyl)boronic acid] | > 6.60 |
| CC(C)C[C@H](NC(=O)C1CC(c2cccc(OCc3ccccn3)c2)=NO1)B(O)O (stereo partly drawn) [Example 43, ((1R)-3-methyl-1-(3-(3-(pyridin-2-ylmethoxy)phenyl)-4,5-dihydroisoxazol-5-carboxamido)butyl)boronic acid] | > 6.60 |
| CC(C)C[C@H](NC(=O)C1CC(c2ccc(Oc3ccccc3)cc2)=NO1)B(O)O (stereo partly drawn) [Example 44, ((1R)-3-methyl-1-(3-(4-phenoxyphenyl)-4,5-dihydroisoxazol-5-carboxamido)butyl)boronic acid] | > 6.30 |
| CC(C)C[C@H](NC(=O)C1CC(CNC(=O)c2ccccn2)=NO1)B(O)O (stereo partly drawn) [Example 60] | > 6.60 |
| CC(C)C[C@H](NC(=O)C1ON=C(CNC(=O)c2nccc3ccccc23)C1C)B(O)O (stereo partly drawn) [Example 65, ((1R)-1-(3-((isoquinolin-1-carboxamido)methyl)-4-methyl-4,5-dihydroisoxazol-5-carboxamido)-3-methylbutyl)boronic acid] | > 6.60 |
| CC(C)C[C@H](NC(=O)C1CC([C@@H](NC(=O)c2nccc3ccccc23)C(C)C)=NO1)B(O)O (stereo partly drawn) [Example 67, ((1R)-1-(3-((S)-1-(isoquinolin-1-carboxamido)-2-methylpropyl)-4,5-dihydroisoxazol-5-carboxamido)-3-methylbutyl)boronic acid] | > 7.60 |
| CC(C)C[C@H](NC(=O)C1CC(CNC(=O)c2ccc3ccccc3c2)=NO1)B(O)O (stereo partly drawn) [Example 69, [(1R)-3-methyl-1-[[3-[(naphthalen-2-carbonylamino)methyl]-4,5-dihydro-1,2-oxazol-5-carbonyl]amino]butyl]boronic acid] | > 7.60 |
| CC(C)C[C@H](NC(=O)C1CC(CNC(=O)c2ccc(C(C)(C)C)cc2)=NO1)B(O)O (stereo partly drawn) [Example 70, ((1R)-1-(3-((4-(tert-butyl)benzamido)methyl)-4,5-dihydroisoxazol-5-carboxamido)-3-methylbutyl)boronic acid] | > 7.00 |
| CC(C)C[C@H](NC(=O)C1CC(C(=O)NCc2cc(Cl)ccc2Cl)=NO1)B(O)O (stereo partly drawn) [Example 75, ((1R)-1-(3-((2,5-dichlorobenzyl)carbamoyl)-4,5-dihydroisoxazol-5-carboxamido)-3-methylbutyl)boronic acid] | > 7.00 |
| CC(C)C[C@H](NC(=O)C1CC(C(=O)Nc2cccc3ccccc23)=NO1)B(O)O (stereo partly drawn) [Example 76, ((1R)-3-methyl-1-(3-(naphthalen-1-ylcarbamoyl)-4,5-dihydroisoxazol-5-carboxamido)butyl)boronic acid] | > 7.30 |
| CC(C)C[C@H](NC(=O)C1CC(C(=O)Nc2cccc(Cl)c2)=NO1)B(O)O (stereo partly drawn) [Example 77, ((1R)-1-(3-((3-chlorophenyl)carbamoyl)-4,5-dihydroisoxazol-5-carboxamido)-3-methylbutyl)boronic acid] | > 6.60 |
| CC(C)C[C@H](NC(=O)C1CC(CNC(=O)Cc2ccccc2)=NO1)B(O)O (stereo partly drawn) [Example 79, ((1R)-3-methyl-1-(3-((2-phenylacetamido)methyl)-4,5-dihydroisoxazol-5-carboxamido)butyl)boronic acid] | > 7.00 |
| Cc1cc(C(=O)NCC2=NOC(C(=O)N[C@@H](CC(C)C)B(O)O)C2)no1 (stereo partly drawn) [Example 81, ((1R)-3-methyl-1-(3-((5-methylisoxazol-3-carboxamido)methyl)-4,5-dihydroisoxazol-5-carboxamido)butyl)boronic acid] | > 6.60 |
| CC(C)C[C@H](NC(=O)C1CC(CNC(=O)c2cnccn2)=NO1)B(O)O (stereo partly drawn) [Example 83, ((1R)-3-methyl-1-(3-((pyrazin-2-carboxamido)methyl)-4,5-dihydroisoxazol-5-carboxamido)butyl)boronic acid] | > 6.60 |

The remaining lines, values ahead:

| pIC50 | Structure (SMILES) |
| --- | --- |
| > 8.00 | CC(C)C[C@H](NC(=O)C1(Cc2ccccc2)CC(COCc2cc(Cl)ccc2Cl)=NO1)B(O)O (stereo partly drawn) [Example 45, ((1R)-1-(5-benzyl-3-(((2,5-dichlorobenzyl)oxy)methyl)-4,5-dihydroisoxazol-5-carboxamido)-3-methylbutyl)boronic acid] |
| > 8.00 | Cc1nc(COCC2=NOC(Cc3ccccc3)(C(=O)N[C@@H](CC(C)C)B(O)O)C2)c(Cl)s1 (stereo partly drawn) [Example 50, ((1R)-1-(5-benzyl-3-(((5-chloro-2-methylthiazol-4-yl)methoxy)methyl)-4,5-dihydroisoxazol-5-carboxamido)-3-methylbutyl)boronic acid] |
| > 8.00 | CC(C)C[C@H](NC(=O)C1(Cc2ccccc2)CC(COCc2cccc(Br)c2)=NO1)B(O)O (stereo partly drawn) [Example 52, ((1R)-1-(5-benzyl-3-(((3-bromobenzyl)oxy)methyl)-4,5-dihydroisoxazol-5-carboxamido)-3-methylbutyl)boronic acid] |
| > 8.00 | CC(C)C[C@H](NC(=O)C1(Cc2ccccc2)CC(COCc2cccc(Br)n2)=NO1)B(O)O (stereo partly drawn) [Example 53, ((1R)-1-(5-benzyl-3-(((6-bromopyridin-2-yl)methoxy)methyl)-4,5-dihydroisoxazol-5-carboxamido)-3-methylbutyl)boronic acid] |
| > 8.00 | CC(C)C[C@H](NC(=O)C1(Cc2ccccc2)CC(COCc2cccc(-c3ccccc3)c2)=NO1)B(O)O (stereo partly drawn) [Example 54, ((1R)-1-(3-(([1,1′-biphenyl]-3-ylmethoxy)methyl)-5-benzyl-4,5-dihydroisoxazol-5-carboxamido)-3-methylbutyl)boronic acid] |
| > 8.00 | CC(C)C[C@H](NC(=O)C1(Cc2ccccc2)CC(COCc2cccc(-c3ccccc3)n2)=NO1)B(O)O (stereo partly drawn) [Example 55, [(1R)-1-[[5-benzyl-3-[(6-phenyl-2-pyridyl)methoxymethyl]-4H-1,2-oxazol-5-carbonyl]amino]-3-methyl-butyl]boronic acid] |
| > 8.00 | COc1ccc(-c2cccc(COCC3=NOC(Cc4ccccc4)(C(=O)N[C@@H](CC(C)C)B(O)O)C3)c2)cc1 (stereo partly drawn) [Example 56, ((1R)-1-(5-benzyl-3-(((4′-methoxy-[1,1′-biphenyl]-3-yl)methoxy)methyl)-4,5-dihydroisoxazol-5-carboxamido)-3-methylbutyl)boronic acid] |
| > 7.60 | COc1cccc(-c2cccc(COCC3=NOC(Cc4ccccc4)(C(=O)N[C@@H](CC(C)C)B(O)O)C3)c2)c1 (stereo partly drawn) [Example 57, ((1R)-1-(5-benzyl-3-(((3′-methoxy-[1,1′-biphenyl]-3-yl)methoxy)methyl)-4,5-dihydroisoxazol-5-carboxamido)-3-methylbutyl)boronic acid] |
| > 7.60 | COc1ccccc1-c1cccc(COCC2=NOC(Cc3ccccc3)(C(=O)N[C@@H](CC(C)C)B(O)O)C2)c1 (stereo partly drawn) [Example 58, [(1R)-1-[[5-benzyl-3-[[3-(2-methoxyphenyl)phenyl]methoxymethyl]-4H-1,2-oxazol-5-carbonyl]amino]-3-methyl-butyl]boronic acid] |
| > 7.60 | CC(C)C[C@H](NC(=O)C1CC(CNC(=O)c2cccc3ncccc23)=NO1)B(O)O (stereo partly drawn) [Example 62, ((1R)-3-methyl-1-(3-((quinolin-5-carboxamido)methyl)-4,5-dihydroisoxazol-5-carboxamido)butyl)boronic acid] |
| > 7.60 | CC(C)C[C@H](NC(=O)C1CC([C@@H](NC(=O)c2cccc3c2CCCC3)C(C)C)=NO1)B(O)O (stereo partly drawn) [Example 66, ((1R)-3-methyl-1-(3-((S)-2-methyl-1-(5,6,7,8-tetrahydronaphthalen-1-carboxamido)propyl)-4,5-dihydroisoxazol-5-carboxamido)butyl)boronic acid] |
